# Source: publication PMC8070791, “Synthesis of a Coumarin-Based PPARγ Fluorescence Probe for Competitive Binding Assay” (International Journal of Molecular Sciences, 2021)
# Read-outs that look alike come from different tables or passages of the source.
# Columns and labels:
# [1] = target: T1, PPARγ (Homo sapiens, UniProt P37231); test: Transactivation dual luciferase assay in COS-7 cells with GAL4-PPARγ chimera; assay type: cell-based; conditions: for EC50: PPARγ transcriptional activity; for Transcriptional activity (in words): compared with rosiglitazone
# T1 sequence (P37231 232-505 limits assumed): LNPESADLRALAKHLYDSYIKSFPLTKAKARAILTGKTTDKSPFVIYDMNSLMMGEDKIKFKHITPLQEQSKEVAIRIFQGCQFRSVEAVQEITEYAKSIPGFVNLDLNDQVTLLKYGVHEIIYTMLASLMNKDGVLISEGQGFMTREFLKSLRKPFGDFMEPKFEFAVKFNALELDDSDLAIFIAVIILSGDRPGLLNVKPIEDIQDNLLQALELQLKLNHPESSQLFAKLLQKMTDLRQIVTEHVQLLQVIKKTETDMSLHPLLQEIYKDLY
# Description: Transactivation in COS-7 cells was measured using a dual luciferase assay according to a previously reported procedure. EC50s were calculated by GraphPad Prism 6 (GraphPad Software, San Diego, USA) (<A>LogEC = LogEC50Control <~A>LogEC = LogEC50Control + log(EC50Ratio) Y = Bottom + (Top-Bottom)/(1 + 10^((LogEC-X) × HillSlope))).
# The data represent the mean ± SD of three independent experiments.
# Biological experiments section
# COS-7 cells (RIKEN BRC) was cultured in Dulbecco’s Modified Eagle’s medium (DMEM) (Sigma-
# Aldrich) supplemented with 5% heat inactivated fetal bovine serum (FBS) (HyClone) and 1%
# penicillin-streptomycin (containing 10000 U/mL penicillin and 10000 µg/mL streptomycin; Nacalai
# [2] = UV-visible absorption and fluorescence spectroscopic analyses in solvents; assay type: physicochemical; conditions: for Q.Y.: reference quinine sulfate in 0.1 M H2SO4; for Q.Y. (Φ), range over solvents: in CH2Cl2, THF, MeOH, or H2O
# Description: We evaluated the fluorescence properties of PPARγ ligands 2 and 6 (Figure 4) by measuring the fluorescence spectra and quantum yields (Q.Y.) in CH2Cl2, THF, MeOH, or H2O. […] The dielectric constant of each solvent was THF: 7.4, CH2Cl2: 8.9, MeOH: 32.6, and H2O: 78.5 [41, 42].
# Stock solutions of model coumarin compounds PPAR ligands 1, 2, and 6 were prepared in DMSO, and stored in the dark at −20 °C. The stock solutions were diluted (2 μM) with solvents (CH2Cl2, THF, MeOH, and H2O) and then the UV-visible absorption and fluorescence signals were measured by a spectrometer. The fluorescence quantum yields of coumarin analogues were calculated using quinine sulfate (Φ = 0.577 in 0.1 M H2SO4) as a reference standard.
# [3] = target: T2, hPPARγ-LBD (Homo sapiens, UniProt P37231); test: Kd determination by fluorescence intensity at 410 nm on adding hPPARγ-LBD; assay type: binding; conditions: probe 1 μM, Ex 367 nm, Tris–HCl buffer
# T2 construct: The human PPARγ-LBD (residues 204−477) was expressed; 6×His (TEV-cleavable) (N, cleaved yes); made in house; host or cells: E. coli Rosetta (DE3)
# T2 sequence (P37231 204-477 isoform P37231-2): T1 sequence (P37231 232-505 limits assumed)
# Description: We examined whether 2 and 6 were useful for PPARγ binding assays. […] The fluorescence spectra were measured by adding hPPARγ-LBD (0.05 to 8.0 μM) in Tris–HCl buffer to 2 (1 μM) (Figure 7a). The fluorescence maxima shifted to shorter wavelength and the fluorescence intensity increased upon increasing the concentration of PPARγ-LBD.
# The assay buffer was measured as the background for fluorescence spectrum. […] The specific equilibrium binding constant (Kd) was derived using GraphPad Prism6 (Y = Bmax × X^h/(Kd^h + X^h) (X: concentration of PPARγ-LBD [nM], Y: fluorescence intensity at 410 nm, h: Hill slope).
# Figure 7 (a) Fluorescence spectra of 2 (1 µM) upon addition to hPPARγ-LBD (0.05–8.0 µM) in Tris–HCl buffer with Ex = 367 nm. (b) Fluorescence intensity of 2 at 410 nm depending on the concentration of hPPARγ-LBD. Data are mean ± SD (n = 3).
# [4] = system: PPARγ; set-up: method as in PMID 17335769; conditions: read-out: The reported IC50 value; cited from earlier work
# [5] = system: PPARγ; set-up: method as in PMID 11698662; conditions: read-out: The reported EC50 value; cited from earlier work
# [6] = system: PPARγ; set-up: method as in PMID 19053776; conditions: read-out: The reported EC50 value; cited from earlier work
EC50 [1] [nM],Transcriptional activity (in words) [1],"Absmax ([2]; In CH2Cl2, 2 μM) [nm]","Emmax ([2]; In CH2Cl2, 2 μM) [nm]","Δ ([2]; In CH2Cl2, 2 μM) [nm]",Q.Y. ([2]; In CH2Cl2),"Absmax ([2]; In H2O, 2 μM) [nm]","Emmax ([2]; In H2O, 2 μM) [nm]","Δ ([2]; In H2O, 2 μM) [nm]",Q.Y. ([2]; In H2O),"Absmax ([2]; In MeOH, 2 μM) [nm]","Emmax ([2]; In MeOH, 2 μM) [nm]","Δ ([2]; In MeOH, 2 μM) [nm]",Q.Y. ([2]; In MeOH),"Absmax ([2]; In THF, 2 μM) [nm]","Emmax ([2]; In THF, 2 μM) [nm]","Δ ([2]; In THF, 2 μM) [nm]",Q.Y. ([2]; In THF),Kd [3] [nM],"Q.Y. (Φ), range over solvents [2]",Compound,further results
180,comparable to rosiglitazone,316,469,153,0.00359,312,451,139,0.00369,314,392,78,0.0039,314,467,153,0.00461,–,–,COc1ccc2c(N(C)CCOc3ccc(CC4SC(=O)NC4=O)cc3)cc(=O)oc2c1 (stereo not drawn) [Compound 1],–
34,comparable to rosiglitazone,359,423,64,0.541,364,462,98,0.143,359,449,90,0.532,354,416,62,0.191,1560 ± 93.6,0.143–0.541,"CCN(CC)c1ccc2c(N(C)CCOc3ccc(CC4SC(=O)NC4=O)cc3)cc(=O)oc2c1 (stereo not drawn) [Compound 2, 5-(4-(2-((7-(diethylamino)-2-oxo-2H-chromen-4-yl) (methyl)amino)ethoxy)benzyl)thiazolidine-2,4-dione]",–
350,partial agonistic activity,359,423,64,0.764,369,461,92,0.0865,358,449,91,0.432,353,416,63,0.172,4080 ± 712,0.0865–0.764,"CCN1C(=O)SC(Cc2ccc(OCCN(C)c3cc(=O)oc4cc(N(CC)CC)ccc34)cc2)C1=O (stereo not drawn) [Compound 6, 5-(4-(2-((7-(diethylamino)-2-oxo-2H-chromen-4-yl)(methyl)amino)ethoxy)benzyl)-3-ethylthiazolidine-2,4-dione]",–

# Second part, the compound before the results:
Compound,EC50 [1] [nM],Transcriptional activity (in words) [1],"Absmax ([2]; In CH2Cl2, 2 μM) [nm]","Emmax ([2]; In CH2Cl2, 2 μM) [nm]","Δ ([2]; In CH2Cl2, 2 μM) [nm]",Q.Y. ([2]; In CH2Cl2),"Absmax ([2]; In H2O, 2 μM) [nm]","Emmax ([2]; In H2O, 2 μM) [nm]","Δ ([2]; In H2O, 2 μM) [nm]",Q.Y. ([2]; In H2O),"Absmax ([2]; In MeOH, 2 μM) [nm]","Emmax ([2]; In MeOH, 2 μM) [nm]","Δ ([2]; In MeOH, 2 μM) [nm]",Q.Y. ([2]; In MeOH),"Absmax ([2]; In THF, 2 μM) [nm]","Emmax ([2]; In THF, 2 μM) [nm]","Δ ([2]; In THF, 2 μM) [nm]",Q.Y. ([2]; In THF),Kd [3] [nM],"Q.Y. (Φ), range over solvents [2]",further results
CN(CCOc1ccc(CC2SC(=O)NC2=O)cc1)c1ccccn1 (stereo not drawn) [Rosiglitazone],–,–,–,–,–,–,–,–,–,–,–,–,–,–,–,–,–,–,–,–,IC50 [4]: […]; EC50 [5]: 18 ± 4 nM; EC50 [6]: […]
